≈ marks a conversion by molar mass, not a printed value.
Legend:
[1] = system: HCT116 colorectal cancer cells; assay: MTT assay, HCT116; details: Homo sapiens, HCT-116, 72 h, read-out: MTT cell proliferation mortality assay (%) HCT116, at 100 μg/ml, 72 h
Description: (§1) All of the following steps were done in a sterile Laminar flow class II biosafety cabinet (Baker, SG406INT, Sanford, ME, USA). DMEM was used as a suspension medium for breast cancer (MCF7), colorectal cancer (HCT116), prostate cancer (PC3), liver cancer (HePG2), pancreatic cancer (PACA2) and lung cancer (A549), while normal cell line (BJ1) was suspended in DMEM-F12 medium. The selected cell lines were purchased from American Type Culture Collection (ATCC). The media were supplemented with a 1% antimycotic-antibiotic mixture (10,000 µg/ml streptomycin sulfate, 25 µg/ml Amphotericin B, and 10,000 U/ml Potassium Penicillin) and 1% L-glutamine. 10 × 10^4cells/well were seeded in 96 well microtiter plates and incubated for 24 h at 37 ℃ under 5% carbon dioxide using a water-jacketed Carbon dioxide incubator (Sheldon, SCO5A, OR, USA). […] After the incubation time of 72 h, the medium was removed. Afterward, 40 µl MTT salt ([…]) was added to each well and kept for 4 h under the same conditions of 37 °C and 5% carbon dioxide. Finally, 200 μl of 10% Sodium dodecyl sulfate (SDS) in deionized water was added to each well and incubated overnight at 37 °C. The step of SDS addition was done to stop the reaction and dissolve the formed formazan crystals. The absorbance was then measured at a wavelength of 595 nm and the reference wavelength was set at 620 nm using a microplate multi-well reader (Bio-Rad Laboratories Inc., model 3356, California, USA). […] A statistical significance analysis was determined between the samples and the negative control using an independent t-test by SPSS 11 program. Dimethyl sulfoxide (DMSO) was the vehicle that dissolved our synthesized compounds and its concentration in the cells was less than 0.2%. IC50 values were calculated using the GraphPad Prism 6 program. The degree of selectivity of the synthetic compounds was expressed as SI = IC50 of a pure compound in a normal cell line/IC50 of the same pure compound in the cancer cell line, where IC50 is the concentration of the compound required to kill 50% of the cells.

[2] = system: HePG2 liver cancer cells; assay: MTT assay, HePG2; details: Homo sapiens, HepG2, 72 h; for IC50: read-out: IC50 HePG2; for cytotoxicity at 100 µg/mL: read-out: MTT cell proliferation mortality assay (%) HePG2
Description: as §1

[3] = system: PC3 prostate cancer cells; assay: MTT assay, PC3; details: Homo sapiens, 72 h, read-out: MTT cell proliferation mortality assay (%) PC3, at 100 μg/ml, 72 h
Description: as §1

[4] = system: PACA2 pancreatic cancer cells; assay: MTT assay, PACA2; details: Homo sapiens, PaCa-2, 72 h, read-out: MTT cell proliferation mortality assay (%) PACA2
Description: as §1

[5] = system: A549 lung cancer cells; assay: MTT assay, A549; details: for cytotoxicity at 100 µg/mL: read-out: MTT cell proliferation mortality assay (%) A549, at 100 μg/ml, 72 h
Description: as §1

[6] = MTT assay, normal cell line BJ1; format: cell-based; details: human, at 100 μg/ml, read-out: MTT cell proliferation mortality assay (%) BJ1
Description: as §1

[7] = system: MCF7 breast cancer cells; assay: MTT assay, MCF7
Description: as §1

[8] = Homo sapiens, MCF7, 72 h, read-out: MTT cell proliferation mortality assay (%) MCF7

| SMILES | cytotoxicity at 100 µg/mL [1] [%] | IC50 [2] [µg/mL] | cytotoxicity at 100 µg/mL [2] [%] | cytotoxicity at 100 µg/mL [3] [%] | cytotoxicity at 100 µg/mL [4] [%] | IC50 ([5]; Homo sapiens, A549, 72 h, read-out: IC50 A549) [µg/mL] | cytotoxicity at 100 µg/mL ([5]; Homo sapiens, A549, 72 h) [%] | cytotoxicity ([5]; read-out: MTT cell proliferation mortality assay (%) A549, at 100 μg/ml, 72 h) [%] | cytotoxicity at 72 h, 100 μg/ml [6] [%] | IC50 ([7]; Homo sapiens, MCF7, 72 h, read-out: IC50 MCF7) [µg/mL] | cytotoxicity at 100 µg/mL [7, 8] [%] | cytotoxicity ([7]; read-out: MTT cell proliferation mortality assay (%) MCF7, at 100 μg/ml, 72 h) [%] |
| --- | --- | --- | --- | --- | --- | --- | --- | --- | --- | --- | --- | --- |
| NNc1nc(C(Cl)(Cl)Cl)nc2c1c(-c1ccc(Br)cc1)c(Cl)n2-c1ccc(Cl)cc1Cl [Compound 15, 5-(4-bromophenyl)-6-chloro-7-(2,4-dichlorophenyl)-4-hydrazineyl-2-(trichloromethyl)-7H-pyrrolo[2,3-d]pyrimidine] | 100 | 29.1 ± 0.5 (≈ 48.4 µM) | 100 | 65.9 ± 2.4 | 100 | 54 ± 1.7 (≈ 89.9 µM) | 80 to 90 | 84.6 ± 0.4 | 4.5 ± 0.3 | 42.8 ± 0.6 (≈ 71.2 µM) | 81.2 ± 0.8 | 80 to 95 |
| CN1CCN(c2ncnc3c2c(-c2ccc(Br)cc2)c(Cl)n3-c2ccc(Cl)cc2Cl)CC1 [Compound 16a, 5-(4-bromophenyl)-6-chloro-7-(2,4-dichlorophenyl)-4-(4-methylpiperazin-1-yl)-7H-pyrrolo[2,3-d]pyrimidine] | 73.2 ± 0.8 |  | 100 | 3.8 ± 0.3 | 7.5 ± 1.1 |  | 3.2 ± 0.5 |  | 70.5 ± 0.4 |  | 73.6 ± 2.2 |  |
| Clc1ccc(-n2c(Cl)c(-c3ccc(Br)cc3)c3c(N4CCOCC4)ncnc32)c(Cl)c1 [Compound 18a, 4-(5-(4-bromophenyl)-6-chloro-7-(2,4-dichlorophenyl)-7H-pyrrolo[2,3-d]pyrimidin-4-yl)morpholine] | 54.2 ± 1.2 |  | 16.4 ± 1.6 | 2.1 ± 0.6 | 31 ± 1.3 |  | 22.7 ± 0.9 |  | 3.2 ± 1.5 |  | 41.2 ± 1.5 |  |
| Clc1ccc(-n2c(Cl)c(-c3ccc(Br)cc3)c3c(N4CCOCC4)nc(C(Cl)(Cl)Cl)nc32)c(Cl)c1 [Compound 19, 4-(5-(4-bromophenyl)-6-chloro-7-(2,4-dichlorophenyl)-2-(trichloromethyl)-7H-pyrrolo[2,3-d]pyrimidin-4-yl)morpholine] | 35.9 ± 1.5 | 19.4 ± 0.8 (≈ 29.6 µM) | 100 | 3.7 ± 1.1 | 31.2 ± 5.1 |  | 5.6 ± 0.7 |  | 52.7 ± 1.4 |  | 62.3 ± 3.4 |  |
